Data reported in patent US20250011351A1, “[…] O-ACETYLPSILOCIN, SALTS AND SOLID STATE FORMS THEREOF” (Terran Biosciences Inc., priority 2021, published 2025).
“Also recorded” adds a separate entry of the source.

What was measured:
[1] = Dynamic vapor sorption (DVS) analysis with XRPD of the post-DVS specimen; type: physicochemical; conditions: for hygroscopicity (in words): DVS at 25° C., RH range given with the value; for hydrate formation: hysteresis of the DVS curve; for solid form of the post-DVS specimen: XRPD after the DVS experiment (5 to 95% RH and back)
Experimental: (§1) DVS analysis was carried out using a TA Instruments Q5000 Dynamic Vapor Sorption analyzer. The instrument was calibrated with standard weights and a sodium bromide standard for humidity. Approximately 10-25 mg of sample was loaded into a metal-coated quartz pan for analysis. The sample was analyzed at 25° C. with a maximum equilibration time of one hour in 10% relative humidity (RH) steps from 5 to 95% RH (adsorption cycle) and from 95 to 5% RH (desorption cycle). The movement from one step to the next occurred either after satisfying the equilibrium criterion of 0.01% weight change or, if the equilibrium criterion was not met, after one hour. The percent weight change values were calculated using Microsoft Excel®.
as §1, with “Dynamic Vapor Sorption (DVS)” for “DVS”, “is” for “was”, “is” for “were”, “Excel.” for “Excel®.”

[2] = Estimated solubility by adding solvent in aliquots to weighed solid, dissolution judged by visual inspection; conditions: room temperature

SMILES: CC(=O)Oc1cccc2[nH]cc(CCN(C)C)c12.O=C(O)C[C@H](O)C(=O)O [L-malate salt, Form B, O-Acetyl Psilocin Malate]
- hygroscopicity (in words) [1]: non-hygroscopic in the range between 5-85% RH; also recorded: hygroscopic above 850% RH
- Water uptake ([1]; DVS, above 85% RH): approx. 4.500%
- hydrate formation ([1]; DVS, above 85% RH): no hydrate formation occurred
- hydrate formation ([1]; DVS, above 85% RH, listed as Malate B): possible hydrate formation
- solid form of the post-DVS specimen [1]: consistent with Form B

SMILES: CC(=O)Oc1cccc2[nH]cc(CCN(C)C)c12.O=C(O)C(O)C(O)C(=O)O [L-tartrate salt, Form A, O-Acetyl Psilocin Tartrate]
- hygroscopicity (in words) [1]: non-hygroscopic in the range from 5-85% RH; also recorded: hygroscopic above 85% RH
- Water uptake ([1]; DVS, above 85% RH): approx. 6%
- hydrate formation ([1]; DVS, above 85% RH): consistent with hydrate formation
- hydrate formation ([1]; DVS, above 85% RH, listed as Tartrate A): possible hydrate formation
- solid form of the post-DVS specimen [1]: consistent with Form A by XRPD analysis and exhibited additional diffraction peaks

SMILES: CC(=O)Oc1cccc2[nH]cc(CCN(C)C)c12.O=C(O)C(O)C(O)C(=O)O [L-tartrate, Form A]
- RH above which hygroscopic (DVS) ([1]; DVS): > 85 % RH
- RH range in which non-hygroscopic (DVS) ([1]; DVS): 5-85 % RH
- hydrate formation upon DVS ([1]; DVS, high RH): resulting in hydrate
- water uptake, DVS ([1]; above 85% RH): ~6%

SMILES: CC(=O)Oc1cccc2[nH]cc(CCN(C)C)c12.O=C(O)CC(O)C(=O)O [Malate Form B]
- Water uptake ([1]; 5-85% RH): 0.8%, 5-85% RH;
- Water uptake (25-65% RH) % [1]: ~0.3%
- Water uptake ([1]; above 85% RH): 4.5% above 85%

SMILES: CC(=O)Oc1cccc2[nH]cc(CCN(C)C)c12 [O-Acetyl Psilocin Freebase, O-Acetyl Psilocin]
- Estimated Solubilities ([2]; 1,4-dioxane): >62
- Estimated Solubilities ([2]; 2-methyltetrahydrofuran 2-Me(THF)): >50
- Estimated Solubilities ([2]; 2-propanol (2-PrOH)): >32
- Estimated Solubilities ([2]; Methyl ethyl ketone (MEK)): >51
- Estimated Solubilities ([2]; Methyl tert-butyl ether (MTBE)): >23
- Estimated Solubilities ([2]; acetone): >59
- Estimated Solubilities ([2]; acetonitrile (ACN)): >67
- Estimated Solubilities ([2]; ethanol (EtOH)): >62
- Estimated Solubilities ([2]; hexanes): <1
- Estimated Solubilities ([2]; methanol (MeOH)): >62
- Estimated Solubilities ([2]; toluene): >59
- Estimated Solubilities ([2]; water): <1

SMILES: CC(=O)Oc1cccc2[nH]cc(CCN(C)C)c12.O=C(O)C(O)C(O)C(=O)O [Tartrate Form A]
- Water uptake (25-65% RH) % [1]: 0.1%
- Water uptake ([1]; 85-95% RH): 5-6% 85-95% RH
- RH at which likely hydrate formation is shown ([1]; listed as 'Other forms'): at 95% RH

SMILES: CC(=O)Oc1cccc2[nH]cc(CCN(C)C)c12.O=C(O)/C=C\C(=O)O [maleate salt, Form A, O-acetyl psilocin maleate]
- hygroscopicity (in words) [1]: non-hygroscopic
- hygroscopicity (in words) ([1]; listed as maleate salt): minimal water sorption over the RH range
- overall water uptake ([1]; DVS, range between 5-95% RH): approx. 0.8%
- solid form of the post-DVS specimen [1]: consistent with Form A

SMILES: CC(=O)Oc1cccc2[nH]cc(CCN(C)C)c12.CS(=O)(=O)O [mesylate salt, Form A, O-Acetyl Psilocin Mesylate]
- hygroscopicity (in words) [1]: non-hygroscopic in the range from 5-55% RH; also recorded: highly hygroscopic material above 55% RH
- Water uptake ([1]; DVS, above 55% RH): 40%
- solid form of the post-DVS specimen [1]: a liquid

SMILES: CN(C)CCc1c[nH]c2cccc(OP(=O)(O)O)c12 [psilocybin]
- hygroscopicity (in words) [1]: hygroscopic between 75-95% RH; also recorded: Hygroscopic above 75% RH:
- solid form of the post-DVS specimen [1]: converted to a hydrate Form B; also recorded: a hydrated form of psilocybin resulted from water sorption between 75-95% RH; also recorded: Crystalline Form B (hydrate)
